In patent US20260327211A1, “MODULATORS OF A POTASSIUM CHANNEL AND OF TRPV1 CHANNEL AND USES THEREOF” (Bsense Bio Therapeutics Ltd., priority 2023, published 2026):
Where “and” joins values, the source holds several entries; their conditions need not be identical. Identical values can stand only once.

How the values were obtained:
[1] = Bidirectional permeability in Caco-2 cells; type: in vitro ADME, human; settings: human, Caco-2, pH 7.4, 2.00 μM
Description: Cell culture: Caco-2 cells (ATCC) were seeded onto polycarbonate (PC) membranes in 96-well insert plates. The cells were cultured in media for 21-28 days prior to performing the transport assays.
Validation of monolayer integrity: Once the Caco-2 cells formed a confluent monolayer, their integrity was evaluated using a Lucifer yellow rejection assay. The monolayer integrity was further evaluated by measuring, in duplicate wells, the unidirectional (A→B) permeability of nadolol (a low permeability marker) and metoprolol (a high permeability marker), as well as bidirectional permeability of digoxin (a P-glycoprotein substrate marker).
Assay: The compounds were assayed under bidirectional transport conditions (A→B and B→A) at a concentration of 2.00 μM (with DMSO≤1.0%), using a transport buffer composed of HBSS containing 10.0 mM HEPES, pH 7.40±0.05. The incubation was carried out at 37° C., with 5.0% CO2 and relatively saturated humidity for 2 hours.
The dosing solution was spiked and mixed with the transport buffer and a Stop Solution (containing an internal standard (IS)) to create a T0 sample.
Sample analysis: Following the incubation, all of the samples were analyzed using LC-MS/MS. The concentrations of the test compounds were expressed as peak area ratios of the analytes versus the IS.

[2] = Metabolite identification (Met-ID), human hepatocytes; type: in vitro ADME; settings: human hepatocytes
Description: Cell culture and incubation: Cryopreserved hepatocyte cells, from human and rat sources, were purchased from commercial sources or in-house production, and were cultured in Williams' Medium E supplemented with glutamine and HEPES, in a humidified 5% CO2 incubator at 37° C., to a cell density of […]. Then, solutions of test compounds at a concentration of 10 μM, or 7-Ethoxycoumarin, as a positive control, at a concentration of 30 μM, in Eagle's Minimum Essential Medium, Catalog No. 30-2003 (ATCC) supplemented with 20% fetal bovine serum, were introduced and the mixture was incubated for 120 minutes, or other specified time points.
The samples were analyzed for metabolites using an LC-MS method developed on […] and PDA systems. Comparative analyses of mass spectra and ion fragmentation between the parent compound and its metabolites were carried out, and metabolic profiling was determined using the mass spectrometric and/or PDA (UV) response. Hypothetical structures of metabolites and their metabolic pathways were proposed.

[3] = Human liver microsome metabolic stability; type: in vitro ADME; settings: for half-life at 1 µM: human, liver microsomes, human liver microsomes, read-out: HLM T1/2
Source text: Liver microsomes which are subcellular particles derived from endoplasmic reticulum of hepatic cells were used for evaluating the tested compounds. These particles are rich in drug metabolizing enzymes, including the cytochrome p-450 family. Liver microsomes are a recommended test system for various in vitro drug metabolism and pharmacokinetics (DMPK) studies. CLint values lower than […] are considered suitable for drug development.
Liver Microsome Metabolic Stability Assay (NADPH): The liver microsome stability assay was evaluated through pre-incubation with HLMs. A liver microsome mixture (pooled from multiple donors) at a concentration of 0.5 mg/mL, and the test compound at a concentration of 1 μM, were warmed in the presence of a NADPH regenerating system (about 1.0 mM) at 37° C. Positive controls, including testosterone (a CYP3A4 substrate), propafenone (a CYP2D6 substrate), and diclofenac (a CYP2C9) substrate, were concurrently incubated with the HLMs, in the presence of the NADPH regenerating system (1.0 mM). Samples were extracted during incubation at multiple intervals: 0, 5, 15, 30, 45 and 60 minutes. To terminate the reactions, the samples were promptly mixed with cooled acetonitrile that included an internal standard (IS). An additional compound was incubated with the HLMs in the absence of the NADPH regeneration system, from which a sample was taken at the 60-minute interval.
The clearance of the test compound in the samples was subsequently analyzed by LC-MS/MS based on the peak area ratios of the analyte to the IS.
The following equation was used to calculate the microsome clearance: […]
Liver weight: 40 grams/kg, 30 grams/kg, 32 grams/kg, 20 grams/kg and 88 grams/kg, for rat, monkey, dog, human and mouse, respectively.

[4] = Log D, 1-octanol/buffer shake flask; type: physicochemical; settings: 1-octanol/phosphate buffer, pH 7.4; read-out: LogD
Description: The Log D assay was a miniaturized 1-octanol/buffer shake flask method followed by LC/MS/MS analysis, as follows.
The test compounds or control compounds Nadolol, Chlorpromazine Hydrochloride and Propranolol Hydrochloride were dissolved in 100% DMSO to obtain 10 mM solutions, which were transferred to 96-well polypropylene cluster tubes; 2 μL/well. 1-octanol saturated with 0.1 M phosphate buffer (149 μL/well) and 0.1 M phosphate buffer saturated with 1-octanol (149 μL/well) were added to the tubes, respectively, and each tube was vigorously mixed for 2 minutes and then shaked at a speed of 800 rpm at room temperature for 1 hour, followed by centrifugation at 4000 rpm for 5 minutes at room temperature. Thereafter, for the test compounds and the Chlorpromazine Hydrochloride and Propranolol Hydrochloride, the sample of the buffer layer was diluted by a factor of 50-fold and the sample of 1-octanol layer was diluted by a factor of 2000-fold with internal standard (IS) solution. For Nadolol, the sample of the buffer layer was diluted by a factor of 1000-fold and the sample of 1-octanol layer was diluted by a factor of 400-fold with internal standard (IS) solution. The samples were analyzed using a triple quadrupole mass spectrometer. Peak areas were corrected by dilution factors and embedded internal standard, and the ratio of the corrected peak areas was used to calculate the Log D value. The Log D value for each compound will be calculated by the following equation: […]

hTRPV1 = target: T1, hTRPV1 (Homo sapiens, UniProt Q8NER1); test: hTRPV1 dual activity electrophysiology, CHO cells co-expressing hKv7.2/3 and hTRPV1; type: cell-based; settings: Dual hTRPV1 / Dual Expressing CHO, CAP IC50, Kv7.2/3 co-expressed and activated, capsaicin
T1 construct: CDS of NM_080704.4, inserted into the multiple cloning site of pcDNA3.1(+); host or cells: CHO/hKv7.2/3
T1 sequence (Q8NER1 whole entry): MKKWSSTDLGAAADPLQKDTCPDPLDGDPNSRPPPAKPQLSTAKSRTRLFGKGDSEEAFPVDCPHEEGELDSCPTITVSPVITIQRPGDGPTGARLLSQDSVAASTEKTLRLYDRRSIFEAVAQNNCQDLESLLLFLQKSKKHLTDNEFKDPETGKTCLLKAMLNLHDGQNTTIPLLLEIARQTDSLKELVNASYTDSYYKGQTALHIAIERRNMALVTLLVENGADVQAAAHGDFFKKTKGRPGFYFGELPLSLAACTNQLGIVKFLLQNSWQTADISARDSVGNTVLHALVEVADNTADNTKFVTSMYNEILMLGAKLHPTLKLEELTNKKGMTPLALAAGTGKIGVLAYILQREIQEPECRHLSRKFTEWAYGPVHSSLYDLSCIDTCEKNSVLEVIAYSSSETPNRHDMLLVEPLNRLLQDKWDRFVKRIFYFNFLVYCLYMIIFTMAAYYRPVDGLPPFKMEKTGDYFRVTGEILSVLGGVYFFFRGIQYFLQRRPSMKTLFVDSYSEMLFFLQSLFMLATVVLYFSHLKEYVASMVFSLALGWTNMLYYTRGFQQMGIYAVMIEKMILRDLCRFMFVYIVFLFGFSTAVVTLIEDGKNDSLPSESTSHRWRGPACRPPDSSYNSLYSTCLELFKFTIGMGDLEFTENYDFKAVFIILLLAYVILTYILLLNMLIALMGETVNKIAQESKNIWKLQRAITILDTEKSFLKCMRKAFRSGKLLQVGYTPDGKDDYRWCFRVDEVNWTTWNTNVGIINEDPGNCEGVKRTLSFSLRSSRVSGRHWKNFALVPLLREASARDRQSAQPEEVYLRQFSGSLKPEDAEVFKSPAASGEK
Description: Cell culture and DNA transfection: CHO/hKv7.2/3 cells were transfected with hTRPV1 DNA constructs (CDS of NM_080704.4, inserted into the multiple cloning site of pcDNA3.1(+) between the Hind III and BamH I restriction site, Genscript). For CHO transfection, 1×10^6 cells were suspended in a reaction mix (Amaxa™ 4D-Nucleofector™-LONZA) containing 5 μg of hTRPV1 DNA and 0.5 μg of GFP DNA (for cells selection) in a cuvette.
The cells were transformed (Amaxa, DT-133 program for CHO transfection with p-3 Kit) and recovered for 10 minutes at RT in the hood. Then cells were re-suspended in a 10 mL antibiotic (Ab)-free medium suspension and were plated on Gelatin or PLL-coated cover glass in different cell densities. On the next morning, the medium was changed to full medium containing the CHO/hKv7.2/3 cell line selection antibiotics.
Extracellular (Bath) solution: The solution was composed of (in mM): NaCl, 140; KCl, 4; CaCl2, 1.8; MgCl2, 1.2; Glucose, 11; HEPES, 5.5. pH was adjusted to 7.3 with NaOH. Osmolarity was adjusted to 310 mOsm with Sucrose.
Intracellular (Pipette) solution: Pipettes were pulled from borosilicate glass (Warner Instrument Corp, USA) with a resistance of 3-7 MΩ and were filled with internal solution composed of (in mM): KCl, 130; MgCl2, 1; K ATP, 5; EGTA, 5; HEPES, 10. pH was adjusted to 7.3 with KOH. Osmolarity was adjusted to 290 mOsm with Sucrose.
A programmable valve-linked pressurized perfusion system was used for local application of compounds nearby the cell recorded in a consistent flow rate of 2-3 mL/minute. Series resistance was corrected and data were sampled at 5 kHz and low pass filtered at 2.4 kHz using MultiClamp 700B amplifier with pCLAMP11 software (Molecular Devices, USA).
At least 48 hours following cell transfection and plating, cells were recorded to assess the TRPV1 dual activity. Membrane potential was held at −90 mV. To measure the inhibitory effects of the tested compounds on hTRPV1 dual activity the following protocol was performed:
Cells were perfused with vehicle-only containing bath solution. After 30 seconds, a single −40 mV 1.5 second step was applied for Kv7.2/3 activation and 30 seconds later capsaicin (1 μM) was applied for 6 seconds to activate the TRPV1.
Cells perfusion was changed to a compound-containing bath solution, and after 2 minutes and 30 seconds of compound application, a single −40 mV 1.5 second step was applied for Kv7.2/3 activation and 30 seconds later capsaicin (1 μM) was applied for 6 seconds to activate the TRPV1.
Cells perfusion was thereafter changed back to vehicle only-containing bath solution. After 30 seconds, a single −40 mV 1.5 step was applied for Kv7.2/3 activation and 30 seconds later capsaicin (1 μM) was applied for 6 seconds to activate the TRPV1 followed by a capsaicin wash out.
The drug current response, when capsaicin was injected following 3 minutes of pre-incubation with the test compound, was divided by the averaged control currents, induced without compound, before compound incubation and following its washout, to evaluate the drug/control response.

CHO-K1 cells = test: In vitro micronucleus; type: cell-based; settings: hamster
Description: (§1) The micronucleus assay was performed according to the regulatory guidelines. In brief, CHO-K1 cells were plated at 10000 cells/well in 3 plates and incubated In CHO-K1 growth medium (containing F12K, 10% FBS and 1% PS) overnight.
(§2) As a control for the S9 treatment, plate No. 1, cells were treated with cyclophosphamide as a positive control, for 3 hours. For plate No. 2, without S9 treatment, cells were treated with mitomycin C as a positive control, compounds for 3 hours, and for plate No. 3, without S9 treatment, cells were treated with bleomycin sulfate as a positive control continuously for 24 hours.
(§3) On the following day, 6 μg/mL of cytochalasin B were added to each well and plates were further incubated overnight. In the day after medium was replaced with a combined 10 μg/mL Hoechst dye solution and 0.5 μM calcein-AM in 100 μL warm DPBS for 30 minutes and the plates were scanned using CQ1 high-content analysis system.

In vitro micronucleus = type: cell-based; settings: hamster, cho-k1 cells
Description: as §1, §2, §3

[5] = system: Spared Nerve Injury (SNI) rats; test: Spared Nerve Injury (SNI) model, von Frey; type: in vivo, rat; settings: rat, in vivo
Description: All animal experiments were carried out according to the Guide for the Care and Use of Laboratory Animals (2011 edition) and approved by the Israel National Institutional Animal Care and Use Committee (IACUC). Young adult male SD rats (Envigo RMS, Israel), were used for in vivo efficacy: Spared Nerve Injury (SNI), Distal Tibial Injury (DTI) and Post-operative Pain (POP), 200-220 grams, Chronic Post-Ischemia Pain (CPIP) 275-325 grams, Monosodium iodoacetate-induced osteoarthritis (MIA-OA) 180-220 grams; for in vivo safety: 200-250 grams at study initiation. […] The health status of the animals used in this study was examined upon their arrival. Only animals in good health were acclimatized to laboratory conditions and were used in the studies. All studies were performed following at least five days of animal acclimation. During acclimation and throughout the entire study duration, animals were housed within a limited-access rodent facility and kept in groups with a maximum of 2-3 rats per polypropylene cage. The cages were fitted with solid bottoms and filled with sterile wood shavings as bedding material. Animals were provided ad libitum with a commercial, sterile rodent diet and had free access to drinking water that was supplied to each cage via polyethylene bottles with stainless steel sipper tubes. A feed lot analysis of the diet batch used in the study was included in the archives with the study data. Water was monitored periodically. Plastic cylinders for playing and hiding and wooden balls or sticks were added to the cages for environmental enrichment.
SNI: The SNI procedure consisted of ligating and dissecting the tibial and common peroneal nerves, thus sparing the sural nerve. Prior to surgery, a dose of 0.03 mg/kg buprenorphine (Temgesic®) was administered to animals as a prophylaxis to alleviate the operative and postoperative pain unrelated to neuropathy. Next, animals were anesthetized with a combination of medetomidine/ketamine sodium IP. While under anesthesia a medio caudal incision of 4-5 mm parallel to the left femur was cut on shaved and disinfected skin. The sciatic nerve was exposed from underneath the muscle layer and isolated gently from the surrounding connective tissue, using curved and blunt forceps. The tibial and common peroneal nerves were first tightly ligated with double knot of 6-0 silk suture, proximally and immediately distal to the sciatic bifurcation. Thereafter, the nerves which run as a pair as physically attached to each other were cut at sites close to the ligatures, thereby removing a length of approximately 0.5 mm of the nerves, necessary to avoid the formation of any re-connection to the nerves. This procedure led to complete denervation of areas of tibial and peroneal innervation in the plantar paw, while neuropathy was developed upon the sural territories. Special care was taken not to manipulate the sural nerve, which thus was left intact. The muscle layers and skin were sutured, and animals were allowed to recover. 0.03 mg/kg buprenorphine SC was administered on postoperative days 1-2, every 12 hours, starting from the evening of Day 0. Rehydration with 4 ml of sterile saline IP was provided directly after the surgery, continuing twice a day for 7 days. The sural nerve innervates the lateral longitudinal third of the plantar paw and therefore, mechanical sensitivity was assessed in this area.
The selection of animals was performed on day 13 post-operation before animals were placed in their experimental groups. Animals with a pain threshold of <4 grams for an operated leg following Von Frey testing were included in the study. To form homogenous treatment groups, all the selected animals were grouped using a random sampling method on study day 13, to form groups with similar pain threshold mean. For blinding purposes, the researcher who dosed the animals with test items was different than the researcher who conducted the VF tests. […]

SMILES | efflux ratio at 2 h, 2 µM [1] | Human Hepatocytes MetID (glutathione conjugation) [2] | HLM and/or Rat PK clearance rates compared to compound 661 [3] | half-life at 1 µM [3] [min] | logD [4] | IC50 (hTRPV1) [µM] | Micronucleus response Absolute MEC (CHO-K1 cells) [µM] | CC50 at 3 h (In vitro micronucleus) [µM] | Reversal of PWT [5]
O=C(Cc1cc(-n2cc(Cl)c3cc(Cl)cc(Cl)c32)cnn1)N[C@@H]1COC[C@H]1O [Compound 830] | 84 | did not indicate the presence of glutathione conjugation | improved HLM and/or Rat PK clearance rates compared to compound 661 | 58.1 | 3.2 | – | – | – | –
O=C(Cc1cc(-n2cc(Cl)c3cc(Cl)cc(Cl)c32)ncn1)N[C@@H]1COC[C@H]1O [Compound 840] | 5.4 | did not indicate the presence of glutathione conjugation and None | improved HLM and/or Rat PK clearance rates compared to compound 661 | 52 | 3.63 | 0.479 | – | – | –
O=P1(N(CCCl)CCCl)NCCCO1 (centres unmarked) [Cyclophosphamide, reference compound] | – | – | – | – | – | – | >400 | 41.4 | –
CC(C)C[C@H](CN)CC(=O)O [Pregabalin, reference compound] | – | – | – | – | – | – | – | – | 61% and 50%
